Measurements as given in patent publication US9927437B2, “Treating neurodegenerative disease” (THE BRIGHAM AND WOMEN'S HOSPITAL, INC., priority 2013, dated 2018).
“Also recorded” adds a separate entry of the source.

Tests used:
[1] = test system: EAE NOD mice; experiment: EAE in NOD mice, progressive phase (clinical score, histopathology, body weight); format: in vivo
[2] = test system: astrocytes; experiment: Viability assay, astrocytes; format: cell-based, mouse; details: 1 h pre-treatment at indicated concentrations, LPS/IFNγ, 6 h after activation
Experimental: FIGS. 14a-g. B4GALT6 directly controls astrocyte activation. (a) Cultured astrocytes were pre-treated for 1 h with PDMP (25 μM), LacCer (10 μM), both (LacCer+PDMP), or vehicle control (vehicle), followed by activation with LPS/IFNγ for 6 h, or left un-treated (control, Con). mRNA expression was analyzed 6 h following activation. qPCR analysis of the expression of cc/5, csf2, nos2, il6, H2-Aa, and tlr2 presented relative to gapdh. Statistical analysis by one-way ANOVA, followed by Tukey post-hoc analysis. (b, c) Cultured astrocytes were pre-treated for 1 h with LacCer (b) or PDMP (c), at indicated concentrations, followed by activation with LPS/IFNγ, or left un-treated (control, Con). Cell viability was determined 6 h after activation. […] Astrocytes were then pre-treated for 1 h with PDMP, or vehicle control (vehicle), followed by activation with LPS/IFNγ for 6 h, or left un-treated (control, Con). mRNA expression for H2-Aa, Ccl5 and Cxcl10 was determined; expression is presented as fold induction relative to housekeeping gene (Gapdh). […] (f) NF-κB (P65), GAPDH, and Lamin B expression, in cytoplasmic and nuclear fractions analyzed by western blot. The degree of NF-κB translocation to the nucleus was assessed by the ratio between the expression of P65 in nuclear and cytoplasmic fractions following densitometric quantification on four independent experiments (Right panel). […]

[3] = test system: Ly6C^high monocytes; experiment: Viability assay, monocytes; format: cell-based, mouse; details: 1 h pre-treatment, 3 h
[4] = test system: primary mouse microglia; experiment: Response of primary microglia to LPS/IFNγ (nCounter); format: cell-based; details: absence of astrocytes, LPS/IFNγ 6 h
Text: (§1) FIGS. 5a-m. B4GALT6 in astrocytes regulates the activation of microglia and CNS-infiltrating monocytes. (a) Heatmap depicting mRNA expression, as determined by nCounter Nanostring analysis, in microglia from naïve or EAE NOD mice treated with PDMP or vehicle. Representative data of three independent experiments. Statistical analysis by Student's t-test. (b) qPCR analysis of ccl5, il1b, opn, nos2, cd40, and H2-Aa gene expression relative to Gapdh. (c, d) Mean normalized expression of genes associated with M1- or M2-phenotype in microglia (Table 3) (c) and Ly6C^high monocytes (d). Statistical analysis by Student's t-test. (e-h) primary microglia were pre-treated with PDMP, LacCer, or vehicle, followed by activation with LPS/IFNγ for 6 h or left un-treated (control) as in (FIG. 3a). mRNA expression was determined by nCounter Nanostring analysis (e, g), and microglial viability was determined (f, h). Representative data of five independent experiments. […] RNA was harvested from microglia treated in the absence [MG (pure)] or presence [MG (mixed)] of astrocytes and gene expression was analyzed by qPCR for the expression ccl2, ccl5 and nos2 relative to gapdh. […] Microglia were isolated as in (i), and microglial-nos2 expression was determined by qRT relative to gapdh and presented as in (i). […]

[5] = test system: primary mouse microglia; experiment: Viability assay, microglia; format: cell-based; details: absence of astrocytes, LPS/IFNγ
Text: as §1

Molecule | disease progression, axonal loss ([1]; NOD EAE, 20 mg/kg i.p. twice a day from day 40, lumbar spinal cord, Bielschowsky's silver stain) | disease progression, demyelination ([1]; NOD EAE, 20 mg/kg i.p. twice a day from day 40, lumbar spinal cord, Luxol fast blue) | disease progression, clinical score ([1]; NOD EAE, 20 mg/kg i.p. twice a day from day 40 after EAE induction) | astrocyte viability [2] | viability of purified Ly6C^high monocytes [3] | response of cultured primary mouse microglia to LPS/IFNγ [4] | viability of cultured primary mouse microglia [5] | EAE disease clinical symptoms ([1]; NOD mice, 10 μg per mouse i.p. every 3 days from day 35 after EAE induction) | EAE disease progression ([1]; NOD EAE, i.c.v. 1×10^7 IU lentivirus at day 35)
CCCCCCCCCC(=O)N[C@H](CN1CCOCC1)[C@H](O)c1ccccc1 [PDMP, D-threo-1-phenyl-2-decanoylamino-3-morpholino-1-propanol] | suppression of disease progression | suppression of disease progression | suppression of disease progression | did not affect astrocyte viability; also recorded: no significant cells death | did not affect | neither the viability nor the response of cultured primary mouse microglia to LPS/IFNγ was affected | neither the viability nor the response of cultured primary mouse microglia to LPS/IFNγ was affected |  | 
lactosylceramide [LacCer] |  |  |  | did not affect astrocyte viability; also recorded: no significant cells death | did not affect | neither the viability nor the response of cultured primary mouse microglia to LPS/IFNγ was affected | neither the viability nor the response of cultured primary mouse microglia to LPS/IFNγ was affected | significant worsening of disease clinical symptoms | 
shB4galt6: lentivirus-delivered shRNA against b4galt6 (TRCN0000334278; SEQ ID NO:3) (guide CGATGGACTGAACAATTTATTCTCGAGAATAAATTGTTCAGTCCACG) |  |  |  |  |  |  |  |  | suppressed disease progression; also recorded: ameliorates disease severity
